What all share (assay type): functional
For one experiment, the system named is NCI-H23. The experiment is described as follows: Antiproliferative activity against human NCI-H23 cells by SRB assay.
A further experiment relates to HCT-15. Briefly: Antiproliferative activity against human HCT15 cells by SRB assay.
The test system of another experiment is MDA-MB-231. Briefly: Antiproliferative activity against human MDA-MB-231 cells by SRB assay.
In another experiment the test system is LOX IMVI. Briefly: Antiproliferative activity against human LOX-IMVI cells by SRB assay. In general terms: In SRB staining, fixed cells bind dye roughly in proportion to their protein.
In a further experiment the test system is ACHN. The experiment is described as follows: Antiproliferative activity against human ACHN cells by SRB assay.
For a further experiment, the system named is PC-3. Briefly: Antiproliferative activity against human PC3 cells by SRB assay.

Activity calls are given as the source filed them. The calls are words filed in the database; no cut-off is given here.

The term GI50 denotes the concentration giving 50% growth inhibition. `COc1ccc(CN2CCC=C(CCC(=O)NO)C2=O)c(OC)c1` displayed a GI50 in the experiment on NCI-H23 of more than 10 µM.
Still for that read-out and setting: as for `O=C(CCC1=CCCN(CCc2ccccc2)C1=O)NO`, the figure is more than 10 µM.
On to `O=C(CCCCCCC(=O)Nc1ccccc1)NO` [VORINOSTAT], for which the GI50 in the experiment on HCT-15 amounted to 820 nM; in the experiment with MDA-MB-231, 660 nM.
In the case of `O=C(CCC1=CCCN(Cc2ccccc2)C1=O)NO`, the GI50 in the experiment with HCT-15 (Homo sapiens, HCT-15) was more than 10000 nM; in the experiment with LOX IMVI it was more than 10 µM; with NCI-H23, more than 10 µM; in the experiment on ACHN, more than 10 µM; in the experiment with PC-3, more than 10 µM.
For the compound `C=CCN1CCC=C(CCC(=O)NO)C1=O`, the GI50 entry in the experiment with PC-3 is “inactive”.
